# According to patent US6713475B2, “Tricyclic benzodiazepines as vasopressin receptor antagonists” (Ortho-McNeil Pharmaceutical, Inc., priority 1999, dated 2004):
# Experiments:
# [1] = system: vasopressin-induced hypertension in anesthetized rats; assay: Reversal of vasopressin-induced hypertension in rats (intraduodenal dosing); format: in vivo, rat; settings: I.D. dose 10 mg/kg, single dose into the duodenum, maximum percent reversal, monitored for 60 minutes
# Experimental: Reversal of Vasopressin-Induced Hypertension in Rats
# The anti-hypertensive activity of compounds was screened in an anesthetized model of vasopressin-induced hypertension. Male Long Evans, normotensive rats of between 350 and 450 g in body weight were anesthetized with pentobarbital (35 mg/kg, ip) and maintained throughout the procedure with an ip infusion of 10 mg/kg/hr. Arginine vasopressin was infused at 30 ng/kg/min, iv, to induce a stable hypertensive state (ca. 50 mmHg increase in mean arterial blood pressure). Compounds of interest were administered in an ascending dose fashion and the maximum decrease in mean arterial blood pressure was recorded. An ED50 was determined from the linear portion of the dose-response relationship for each animal.
# This model was modified slightly to assess the bioavailability of compounds of interest. Rather than dosing the animals iv in an ascending dose fashion, a single dose per animal was administered directly into the duodenum. The anti-hypertensive effects were then monitored for 60 minutes and the maximum percent reversal was calculated.
# human V-1 receptor = molecular target: T1, human V-1 receptor (Homo sapiens, UniProt P37288); assay: In vitro recombinant vasopressin receptor binding assay (V1 Bdg), displacement of 3H-arginine vasopressin; settings: read-out: V1 Bdg (% inh, 0.1 uM)
# T1 construct: expressed in transfected cells; host or cells: HEK-293
# T1 sequence (P37288 whole entry): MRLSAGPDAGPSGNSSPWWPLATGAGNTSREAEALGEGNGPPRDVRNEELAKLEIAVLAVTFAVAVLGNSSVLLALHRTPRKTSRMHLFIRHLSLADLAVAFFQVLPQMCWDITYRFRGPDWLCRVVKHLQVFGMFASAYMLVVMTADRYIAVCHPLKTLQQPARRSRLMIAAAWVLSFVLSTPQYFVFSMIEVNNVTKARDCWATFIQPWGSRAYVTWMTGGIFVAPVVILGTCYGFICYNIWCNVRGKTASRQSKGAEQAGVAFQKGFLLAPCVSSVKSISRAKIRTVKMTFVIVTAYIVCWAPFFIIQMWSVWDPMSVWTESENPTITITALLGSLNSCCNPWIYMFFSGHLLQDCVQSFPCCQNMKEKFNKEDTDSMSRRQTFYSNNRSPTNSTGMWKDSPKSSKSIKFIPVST
# In short: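 Membranes from HEK-293 cells bearing cloned human V-1 receptor, incubated 1 h at room temperature with 0.65-0.75 nM 3H-arginine-8-vasopressin in pH 7.5 Tris/MgCl2/BSA buffer with protease inhibitors. Filtration onto GF/C, scintillation count. Non-specific binding with 1.25 uM arginine-8-vasopressin.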
# V2 [2] = molecular target: T2, V2 (Homo sapiens, UniProt P30518); assay: V2 cAMP; format: cell-based
# T2 sequence (P30518 whole entry): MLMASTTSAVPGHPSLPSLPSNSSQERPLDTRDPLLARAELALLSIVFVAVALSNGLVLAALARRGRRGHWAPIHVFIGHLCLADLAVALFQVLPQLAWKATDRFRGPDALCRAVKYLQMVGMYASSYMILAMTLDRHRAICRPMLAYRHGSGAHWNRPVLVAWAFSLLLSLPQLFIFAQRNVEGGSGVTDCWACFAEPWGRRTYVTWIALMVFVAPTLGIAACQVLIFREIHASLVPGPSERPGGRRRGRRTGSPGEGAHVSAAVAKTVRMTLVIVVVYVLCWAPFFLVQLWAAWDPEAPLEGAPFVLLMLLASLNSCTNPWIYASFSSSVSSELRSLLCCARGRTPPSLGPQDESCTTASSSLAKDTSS
# V2 [3] = molecular target: T2, V2; assay: In vitro recombinant vasopressin receptor binding assay (V2 Bdg), displacement of 3H-arginine vasopressin; parameters: expressed in transfected cells; host or cells: HEK-293; settings: membrane with cloned human V-2 receptor (HEK-293)
# In short: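 Displacement of ³H-vasopressin from membranes of HEK-293 cells bearing cloned human V-2 receptor, incubated with test compound one hour at room temperature. Bound label was collected on PEI-soaked GF/C filters, washed with cold saline/0.05% Tween 20, and counted by scintillation.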
SMILES,BP Reduction (%) [1],inhibition at 0.1 µM (human V-1 receptor),IC50 (V2 [2]),IC50 (V2 [3])
"O=C(Nc1ccc(C(=O)N2CC3CCCCN3Cc3ccccc32)cc1)c1ccccc1-c1ccccc1 (stereo not drawn) [Compound 1, 10-[4-[[(2-Biphenyl)carbonyl]amino]benzoyl]-10,11-dihydro-5H-piperidino[2,1-c][1,4]benzodiazepine]",67%,31%,210 nM,9 nM
"O=C(Nc1ccc(C(=O)N2C[C@H]3COCCN3Cc3ccccc32)c(Cl)c1)c1ccccc1-c1ccccc1 [Compound 4, (S)-2-Phenyl-N-[3-chloro-4-(1,3,4,12a-tetrahydro-6H-[1,4]oxazino[4,3-a][1,4]-benzodiazepin-11(12H)-yl-carbonyl)phenyl]benzamide]",100%,–,11 nM,2 nM
"O=C(Nc1ccc(C(=O)N2CC3CSCCN3Cc3ccccc32)cc1)c1ccccc1-c1ccccc1 (racemic) [Compound 3, (RS)-2-Phenyl-N-[4-(1,3,4,12a-tetrahydro-6H-[1,4]thiazino[4,3-a][1,4]-benzodiazepin-11(12H)-yl-carbonyl)phenyl]benzamide]",100%,42%,–,–
"O=C(Nc1ccc(C(=O)N2CC3CC=CCN3Cc3ccccc32)cc1)c1ccccc1-c1ccccc1 (stereo not drawn) [Compound 2, 10-[4-[[(2-Biphenyl)carbonyl]amino]benzoyl]-10,11-dihydro-5H-(tetrahydropyridino)[2,1-c][1,4]benzodiazepine]",–,29%,460 nM,14 nM
